Assays:
Format in all cases: cell-based, human
HUVECs = assay: GeneCalling gene expression profiles of stimulated HUVECs
Source text: (§1) Cells and cell assays. Primary human endothelial cells were purchased from Clonetics (Santa Rosa, Calif.) and cultured according to the manufacturer's instructions. For gene calling experiments, human umbilical vein endothelial cells (HUVECs) were purchased from Clonetics (BioWhittaker, Walkersville, Md.) and maintained in endothelial growth medium (EBM-2) complemented with 5% fetal calf serum (FCS) following the manufacturer's instructions. Cells (1×107) were split at a cell density of 19 000 cell/cm2 and triplicate experiments for each condition were run in parallel. Twenty-four hours after plating the cells, cell were washed 3 times with phosphate-buffered saline (PBS) and media (Clonetics) containing either 0.1% bovine serum albumin (BSA) or 0.1% BSA plus VEGF (30 ng/mL) or 5% FCS. RNA isolation and reverse transcription-PCR (RT-PCR) analysis was performed as described.^21 For cell culture experiments, the following conditions were used: human (h) VEGF, 30 ng/mL; hTNF-α, 10 ng/mL; PMA, 200 ng/mL (Calbiochem, LaJolla, Calif.); CsA, 1 μM (Calbiochem); IO 5 μM (Sigma, St Louis, Mo.); thapsigargin, 50 nM (Sigma). […] 24 hours after serum starvation and dosing, cell were counted on a Coulter brand style cell counter. […]

Cox-2, E-selectin, TF = assay: Real-time RT-PCR of inflammatory marker / VEGF target genes in HUVECs
Source text: (§2) Cells and cell assays. Primary human endothelial cells were purchased from Clonetics (Santa Rosa, Calif.) and cultured according to the manufacturer's instructions. For gene calling experiments, human umbilical vein endothelial cells (HUVECs) were purchased from Clonetics (BioWhittaker, Walkersville, Md.) and maintained in endothelial growth medium (EBM-2) complemented with 5% fetal calf serum (FCS) following the manufacturer's instructions. Cells (1×107) were split at a cell density of 19 000 cell/cm2 and triplicate experiments for each condition were run in parallel. Twenty-four hours after plating the cells, cell were washed 3 times with phosphate-buffered saline (PBS) and media (Clonetics) containing either 0.1% bovine serum albumin (BSA) or 0.1% BSA plus VEGF (30 ng/mL) or 5% FCS. RNA isolation and reverse transcription-PCR (RT-PCR) analysis was performed as described.^21 For cell culture experiments, the following conditions were used: human (h) VEGF, 30 ng/mL; hTNF-α, 10 ng/mL; PMA, 200 ng/mL (Calbiochem, LaJolla, Calif.); CsA, 1 μM (Calbiochem); IO 5 μM (Sigma, St Louis, Mo.); thapsigargin, 50 nM (Sigma). In one instance inhibiting (si) RNAs were generated by Dharmacon (Lafayette, Colo.) based on the full-length cDNAs of the respective gene and using the “Smart-pool” service (Dharmacon, Lafayette, Colo.). For adenoviral transduction survival experiments, human umbilical vein endothelial cells (HUVECs) were maintained in endothelial growth medium (EBM-2) complemented with 5% FCS following the manufacturer's instructions. 3×10^5 cells were split per well of a 6 well plate (Primaria, BD Biosciences, Bedford, Mass.) and duplicate experiments for each condition were run in parallel. Cells were infected with adenovirus (MOI=100) encoding for a gD peptide (Ad-Control), DSCR1 (Ad-DSCR1) or an antisense construct with the coding sequence inverted (Ad-DSCR1-AS) for 2 h in serum free media containing 10 mM […] and 10 nM MgCl2 on a vertical shaker at room temperature. Thereafter, 5 times the volume of regular growth medium containing 5% FCS was added and cells were kept for 1 day in a CO2 incubator. Thereafter, cells were washed three times with PBS and basal media (Clonetics, Santa Rosa, Calif.) containing 0.1 % BSA was added and PMA/IO, H202, and ZVAD as indicated. 24 hours after serum starvation and dosing, cell were counted on a Coulter brand style cell counter. For cell culture experiments, the following conditions were used: PMA: 200 ng/ml (Calbiochem, LaJolla, Calif.), Ionomycine: 5 μM (Sigma, St. Louis, Mo.), a 3% H202 solution was diluted 1:300 in basal media, 0.1% BSA to result in a 0.01% H202 solution, ZVAD 5 μM.

DSCR1 [1] = assay: GeneCalling analysis of DSCR1 mRNA expression in HUVECs; details: VEGF 30 ng/mL, relative to basal conditions
Source text: as §1

DSCR1 [2] = assay: DSCR1 expression analysis by real-time RT-PCR (TaqMan) in HUVECs; details: serum-starved HUVECs, over 36 hours
Source text: as §2

DSCR1 [3] = assay: Western blot of DSCR1 protein in whole cell extracts of HUVECs; details: 6 hours of stimulation
Description: Cells cultured in 10-cm dishes were washed twice in Tris (tris(hydroxymethyl)aminomethane)-buffered saline, and 0.6 mL RIPA buffer (10 mM PBS, 1% Nonidet P-40, 0.5% sodium deoxycholate, 0.1% sodium dodecyl sulfate [SDS], […] phenylmethylsulfonyl fluoride, 30 μg/mL aprotinin, 1 mM sodium orthovanadate), and protease inhibitors (Roche Pharmaceuticals, Gaithersburg, Md.) were added. Mouse monoclonal antibody (mAb) directed against human NFATc 1, c2, and c3 was purchased from Santa Cruz Biotechnology (Santa Cruz, Calif.). Affinity-purified goat polyclonal antibody against human E-selectin, vascular cell adhesion molecule-1 (VCAM-1), intercellular adhesion molecule-1 (ICAM-1), and Cox-2 was from BD Pharmingen. Total endothelial cell extract, polyacrylamide gel electrophoresis (PAGE), blotting, and immunodetection were performed according to the Santa Cruz Biotechnology protocol. A total of […] whole-cell extract was loaded on each lane of a 4% to 16% polyacrylamide gel. The enhanced chemiluminescence (ECL) reaction kit was purchased from Amersham Pharmacia Biotech (Piscataway, N.J.), and horseradish peroxidase streptavidin from Vector Laboratories (Burlingame, Calif.) was used. For NFATc1 experiments, equal amounts of cell extract were loaded to visualize NFATc1 (mAb 7A6; 1:500; Santa Cruz Biotechnology) and the loading control α-tubulin (mAb from ICN, Santa Ana, Calif.; 1:5000). For Cox-2 and TF immunoblot analysis equal amounts of cell lysate were loaded on a 6% to 12% gradient SDS-PAGE. Cox-2 was analyzed with an anti-Cox2 mAb (RDI, 1:500) and TF with an anti-hTF mAb (clone 7G11) was generated at Genentech, and used at a 1:500 dilution. Before loading the samples on the gel, the protein amounts were quantified and adjusted accordingly. As loading control, an anti-γ-adaptin mAb was used (1:1000) on a 4% to 20% polyacrylamide gel.
DSCR1 was PCR amplified with primers DSCR1-EcoRI-Pro 5′, adding an extra proline and DSCR1-Stop-XhoI 3′, by using DSCR1 cDNA as a template and cloned into pGEX-KG. GST-DSCR1 was expressed and purified essentially as described previously.^23 Polyclonal rabbit anti-GST-DSCR1 was prepared by immunization with recombinant GST-DSCR1. Filtered crude serum was used for Western blots (1:400).

DSCR1 [4] = assay: DSCR1 expression by real-time RT-PCR in HPAECs, HMVECs and HUAECs; details: HMVECs, HUAECs
Source text: as §1

NFATc1 = assay: IHC/immunofluorescence analysis of nuclear translocation of NFATc1; details: endothelial cells, 20 minutes after VEGF 30 ng/mL; adenoviral transduction MOI=100
Description: Primary human endothelial cells (7×10^3 cells/cm^2) were seeded into each well of an 8-chamber microscope slide (Nalgene Nunc, Naperville, Ill.) 24 hours prior to staining. Cells were infected with adenovirus (multiplicity of infection [MOI]=100) encoding for LacZ or DSCR1 for 2 hours in serum-free media containing 10 mM CaCl2 and 10 nM MgCl2 on a vertical shaker at room temperature. Thereafter, 5 times the volume of regular growth medium was added and cells were kept for 2 days in a CO2 incubator. After replacing the media, cells were treated with hVEGF at a concentration of 30 ng/mL for 20 minutes. Prior to incubation with various antibodies, cells were fixed with methanol for 4 minutes at −20° C. and washed with PBS at room temperature. Cells were incubated in PBS containing the primary mouse antihuman NFATc1 antibody (sc7294, Santa Cruz Biotechnology) for 1 hour at room temperature. Cells were then washed 3 times with PBS and incubated in PBS containing Alexa Fluor 488 antimouse IgG (Molecular Probes, Eugene, Oreg.). Cells were finally washed 3 times with PBS and mounted beneath coverslips in Vectashield medium (Vector Laboratories). Microscopy and photography were conducted using a Zeiss Axiovert 200 fluorescence microscope fitted with an AxioCam MR monochrome camera (Zeiss, Thornwood, N.Y.) using a ×63 oil objective.

Substance: VEGF
- changes in traces representing alterations in expression of genes (HUVECs; after 6 hours): 1.7%
- changes in traces representing alterations in expression of genes (HUVECs; after 24 hours): 3.4%
- expression of Bcl-2 (Cox-2, E-selectin, TF; HUVECs, VEGF stimulation, entire experiment): consistently expressed
- GM-CSF, TF, COX-2, VCAM-1 and E-selectin RNA levels (Cox-2, E-selectin, TF; HUVECs, between 0 and 2 hours after VEGF): increased
- GM-CSF, TF, COX-2, VCAM-1 and E-selectin RNA levels (Cox-2, E-selectin, TF; HUVECs, between 6 and 36 hours after VEGF, compared to untreated cells): reversed into repression
- increase in gene expression (COX2, E-selectin, TF mRNA) (Cox-2, E-selectin, TF; endothelial cells, 4 hours of incubation): 2- to 3 fold
- induced DSCR1 mRNA expression (DSCR1 [1]; after 6 hours): 4.8 fold
- induced DSCR1 mRNA expression (DSCR1 [1]; after 24 hours): 2.9 fold
- DSCR1 expression levels (real-time RT-PCR) (DSCR1 [2]): induced prolonged expression of DSCR1
- DSCR1 protein levels (DSCR1 [3]): induction of DSCR1
- DSCR1 expression (real-time RT-PCR) (DSCR1 [4]): increased levels of DSCR1 expression
- nuclear localization of NFATc1 (NFATc1): prominent nuclear localization of NFATc1

— patent publication US20060281680A1, “Methods and compositions for modulating vascular integrity” (GENENTECH, INC., priority 2005, published 2006)
